Reference: patent publication US10875834B2, “Prodrug and protected forms of 5-hydroxymethylfurfuranal (5-HMF) and its derivatives” (VIRGINIA COMMONWEALTH UNIVERSITY, priority 2016, dated 2020)
“And” between values parts separate entries of the source, which are not always exact repeats. Equal values may be shown once. “Also recorded” adds a separate entry of the source. Read-outs that look alike come from different tables or passages of the source.

Key:
[1] = target: T1, sickle Hb (Hb S) (Homo sapiens, UniProt P69905); assay: Hb adduct formation study (Hb S modification) with SS cells, cation-exchange HPLC; assay type: cell-based; conditions: for Modified Hb (%): 2 mM test compound, SS cells suspensions (20% hematocrit), mean ± SD, three experiments; for Hb modification relative to 5-HMF: 1, 2 and 5 mM
T1 construct: from tissue; host or cells: blood (red cells) of a subject with homozygous sickle cell disease; hemolysate analysed
Excerpt: (§1) The twelve compounds, VZHE004, VZHE006, VZHE007, VZHE005, VZHE011, VZHE013, VZHE014, VZHE015, VZHE016, 5-PMFC, 5-CMFC, 5-NMFC, and the parent compound (positive control) 5-HMF were investigated for their abilities to prevent hypoxia-induced RBC sickling (RBC morphology study), increase sickle Hb oxygen affinity (oxygen equilibrium curve; OEC study), and modify sickle Hb (adduct formation study) as previously published (Abdulmalik et al., Br. J Haematol., 2005, 128, 552; Safo et al, J. Med. Chem, 2004, 47, 4665). Briefly, blood suspensions from a subject with homozygous SCD (hematocrit: 20%) were incubated under air in the absence or presence of 1, 2 and 5 mM concentration of test compounds at 37° C. for 1 hr to ensure that binding had attained equilibrium. Following, the suspensions were incubated under hypoxic condition (4% oxygen/96% nitrogen) at 37° C. for 2 hr. Aliquot samples were fixed with 2% glutaraldehyde solution without exposure to air, and then subjected to microscopic morphological analysis. The residual samples were washed in phosphate-buffered saline, and hemolyzed in hypotonic lysis buffer for subsequent analyses.
(§2) For the OEC study, approximately 100 μl aliquot samples from clarified lysate obtained from the antisickling study were added to 4 ml of 0.1M potassium phosphate buffer, pH 7.0, in a cuvette and subjected to hemoximetry analysis using Hemox™ Analyzer (TCS Scientific Corp.) to assess P50 shifts. Finally, for the Hb adduct formation study, clarified lysates, also from the above antisickling study, were subjected to cation-exchange HPLC (Hitachi D-7000 Series, Hitachi Instruments, Inc., San Jose, Calif.), using a weak cation-exchange column (Poly CAT A: 30 mm×4.6 mm, Poly LC, Inc., Columbia, Md.).

[2] = target: T2, sickle Hb oxygen affinity (Homo sapiens, UniProt P69905); assay: Oxygen equilibrium curve (OEC) study, P50 shift of hemolysate from SS cells; assay type: cell-based; conditions: for AP50 (%): 2 mM test compound, hemolysate of SS cells, mean ± SD, three experiments; for P50 shift relative to 5-HMF: 1, 2 and 5 mM
T2 construct: from tissue; host or cells: blood (red cells) of a subject with homozygous sickle cell disease; hemolysate analysed
Excerpt: as §1, §2

[3] = tested on: homozygous sickle red blood cells (SS cells); assay: Antisickling (RBC morphology) study under hypoxia; assay type: cell-based, human
Excerpt: as §1

[4] = both in-vitro and in-vivo; cited from earlier work
[5] = tested on: sickle cell disease; conditions: phase I/II human clinical studies; cited from earlier work
[6] = target: T3, Hb A (Homo sapiens, UniProt P69905); assay: Time-dependent adduct formation study in normal whole blood; assay type: in vitro ADME; conditions: 2 mM, up to 24 hr
T3 construct: time-dependent studies on Hb adduct formation using normal whole blood; from tissue; host or cells: normal human whole blood (30% hct)
Description: The compounds, VZHE004, VZHE006, VZHE007, VZHE005, VZHE011, VZHE013, VZHE014, VZHE015, VZHE016, 5-PMFC, 5-NMFC, and the control 5-HMF were used to conduct time-dependent studies on Hb adduct formation using normal whole blood. The study was performed in a 96-well deepwell (Thermo Scientific) plate, where each compound at 2 mM concentration was added to 600 μL of whole blood (30% hct) and incubated at 37° C. for 24 hr with shaking (at 140 rpm). At 0.5 hr, 1 hr, 2 hr, 4 hr, 6 hr, 8 hr and 24 hr time intervals, 75 μL aliquot of blood was removed from each well using a multichannel pipette and added to respective tubes containing 75 μL of Na cyanoborohydride and borohydride mix (1:1 v/v 50 mM stock) to terminate the Schiff-base reaction, fix the Schiff-base adducts and reduce the reduce free reactive aldehyde (Davies et al., Food Chem. Toxicol. 2009, 47, 1950). We have previously optimized these conditions. After mixing, the tubes were stored immediately at −80° C. until ready for analysis to determine Hb adduct formation using cation-exchange HPLC (Hitachi D-7000 Series, Hitachi Instruments, Inc., San Jose, Calif.).

[7] = target: Hb (Homo sapiens, UniProt P69905); assay: Incubation of Hb with VZHE004 for three days, UPLC-MS analysis; assay type: in vitro ADME; conditions: incubated with Hb for three days
Excerpt: The overall tetrameric structure is indistinguishable (rmsd ˜0.4 Å) from 1BBB or the R2 structure in complex with 5-HMF (PDB code 1QXE). Like 5-HMF we also observed a pair of VZHE004 molecules covalently bound to the N-terminal αVal1 amines (Schiff-base interaction) in a symmetry-related fashion at the α-cleft (FIG. 7). The electron density of VZHE004 was relatively weak especially at the methyl acetate position. As such, the compound was refined as 5-HMF at the α1Val1 site, while the full VZHE004 was modelled at the α2Val1 binding site but with the methyl acetate refined in two alternate conformations (FIG. 7a). However, to make sure that the disorder is not due to partial hydrolytic cleavage of the ester, Hb and VZHE004 were incubated for three days.

[8] = Homo sapiens, Erythrocyte, 2 mM test compound, SS cells 20% hematocrit, hypoxia 4% oxygen/96% nitrogen, mean ± SD, read-out: Inhibition of Sickling (%)
[9] = Homo sapiens, Erythrocyte, 2 mM, read-out: RBC sickling inhibition
[10] = Homo sapiens, Erythrocyte, 5 mM, read-out: RBC sickling inhibition
[11] = 2 mM test compound, SS cells 20% hematocrit, hypoxia 4% oxygen/96% nitrogen, mean ± SD

T1 sequence (P69905 2-142 limits assumed): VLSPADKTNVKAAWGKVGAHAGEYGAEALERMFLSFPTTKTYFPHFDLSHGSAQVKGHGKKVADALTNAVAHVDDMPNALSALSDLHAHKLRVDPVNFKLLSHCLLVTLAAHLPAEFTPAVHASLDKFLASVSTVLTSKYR
T2 sequence (P69905 2-142 limits assumed): as above
T3 sequence (P69905 2-142 limits assumed): as above
T3 sequence (P68871 2-147 partner limits assumed): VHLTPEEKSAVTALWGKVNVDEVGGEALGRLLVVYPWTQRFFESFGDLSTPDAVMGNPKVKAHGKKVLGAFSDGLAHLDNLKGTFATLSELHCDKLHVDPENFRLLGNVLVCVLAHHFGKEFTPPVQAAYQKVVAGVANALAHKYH
Chain of Hb (P69905 2-142 limits assumed): as the sequence (P69905 2-142 limits assumed) above
Chain of Hb (P68871 2-147 partner limits assumed): as the sequence (P68871 2-147 partner limits assumed) above

In the case of `O=Cc1ccc(COc2ccc(Cl)cc2)o1` [Compound 5-CMFC, 5-((4-chlorophenoxy)methyl)-2-furan carbaldehyde], the “Modified Hb (%)” value [1] is reported as 26.7 ± 6.5%, the “AP50 (%)” value [2] is reported as 13.2 ± 5.2% and the “P50 shift relative to 5-HMF” value [2] is reported as “significantly less P50 shift than 5-HMF; also recorded: lower degrees of shift than 5-HMF”. The “antisickling effect” value ([3]; 5 mM) was “barely showed any antisickling effect”, the inhibition at 2000 µM [3, 8] was 2 ± 1.9% and the inhibition at 2000 µM [3, 9] was less than 10%. The “antisickling effect” value ([3]; over 1, 2 and 5 mM) was “barely showed any antisickling activity; also recorded: poor antisickling effects”.

In the case of `O=Cc1ccc(CO)o1` [Compound 5-HMF, 5-hydroxymethyl-2-furfural, reference compound], the “Modified Hb (%)” value [1] is given as 32.8 ± 1.6%, the half-life in plasma [4] is given as 1 to 1.5 h and the “AP50 (%)” value [2] is given as 33.4 ± 0.9%. The RBC sickling inhibition ([3]; 2 mM) was ~23% and ~26%, the inhibition at 2000 µM [3, 8] was 25.7 ± 4.4% and the inhibition at 2000 µM [3, 9] was 26%. For the same compound, the effective dose [5] was 2-4 gm.

For `O=Cc1ccc(COc2ccccc2[N+](=O)[O-])o1` [Compound 5-NMFC, 5-((2-nitrophenoxy)methyl)-2-furan carbaldehyde], the “Modified Hb (%)” value [1] was 40.5 ± 17.6%, the “Hb modification relative to 5-HMF” value [1] was “superior Hb modification” and the “AP50 (%)” value [2] was 13.4 ± 5.7%. The “P50 shift relative to 5-HMF” value [2] was “significantly less P50 shift than 5-HMF; also recorded: lower degrees of shift than 5-HMF”, the “antisickling effect” value ([3]; 5 mM) was “barely showed any antisickling effect” and the inhibition at 2000 µM [3, 8] was 10.3 ± 0.5%. The inhibition at 2000 µM [3, 9] was less than 10%, the inhibition at 5000 µM [3, 10] was less than 10% and the “antisickling effect” value ([3]; over 1, 2 and 5 mM) was “barely showed any antisickling activity; also recorded: poor antisickling effects”. For the same compound, the “metabolic profile / decline of Hb adduct in whole blood” value [6] was “exhibit some resistance to metabolism”.

For `O=Cc1ccc(COc2ccccc2)o1` [Compound 5-PMFC, 5-(phenoxymethyl)-2-furan carbaldehyde], the “Modified Hb (%)” value [1] was 60.53 ± 5.3%, the “Hb modification relative to 5-HMF” value [1] was “superior Hb modification” and the “AP50 (%)” value [2] was 45.4 ± 14.6%. For the same compound, the “P50 shift relative to 5-HMF” value [2] was “better P50 sift than 5-HMF”, the RBC sickling inhibition ([3]; 2 mM) was roughly 95% and the “antisickling effect” value ([3]; 2 mM) was “attained maximum effect”. The inhibition at 1000 µM ([3]; Homo sapiens, Erythrocyte, 1 mM, read-out: RBC sickling inhibition) was roughly 17%, the inhibition at 2000 µM [3, 8] was 94.7 ± 0.1% and the “metabolic profile / decline of Hb adduct in whole blood” value [6] was “exhibit some resistance to metabolism”.

In the case of `CC(=O)OCc1ccc(C=O)o1` [VZHE004, (5-formylfuran-2-yl)methyl acetate], the “Modified Hb (%)” value [1] is reported as 43.5 ± 8.4%, the “AP50 (%)” value [2] is reported as 44.6 ± 11.9% and the RBC sickling inhibition ([3]; 5 mM) is reported as roughly 60%. For the same compound, the inhibition at 2000 µM [3, 8] was 26.3 ± 4.4%, the inhibition at 5000 µM [3, 10] was 60% and the “stability of the ester against hydrolytic cleavage (UPLC-MS)” value [7] was “intact”.

For `CC(C)(C)OC(=O)OCc1ccc(C=O)o1` [VZHE006, tert-Butyl ((5-formylfuran-2-yl)methyl) carbonate], the “Modified Hb (%)” value [1] was 50.0 ± 3.0%, the “AP50 (%)” value [2] was 44.8 ± 12.9% and the inhibition at 2000 µM [3, 8] was 71.6 ± 0.1%. It also gave an inhibition at 2000 µM [3, 9] of 35 to 95% and an inhibition at 5000 µM [3, 10] greater than 95%.

With `O=Cc1ccc(COC(=O)c2ccccc2)o1` [VZHE007, (5-Formylfuran-2-yl)methyl Benzoate] the “Modified Hb (%)” value [1] was 44.5 ± 6.0%, the “AP50 (%)” value [2] was 38.9 ± 11.9% and the inhibition at 2000 µM [3, 8] was 10 ± 5.9%. The inhibition at 5000 µM [3, 10] was roughly 83% and the “antisickling effect” value ([3]; over 1, 2 and 5 mM) was “poor antisickling effects”.

For `CCOCc1ccc(C=O)o1` [VZHE011, 5-(Ethoxymethyl)-2-furan Carboxadehyde], the “Modified Hb (%)” value [1] was 40.4 ± 3.9%, the “AP50 (%)” value [2] was 39.8 ± 0.8% and the “antisickling effect” value ([3]; 2 mM) was “superior”. It also gave an inhibition at 2000 µM [3, 8] of 58.8 ± 7% and an inhibition at 2000 µM [3, 9] of 35 to 95%.

For `CC(C)(C)OCc1ccc(C=O)o1` [VZHE013, 5-(tert-Butoxymethyl)furan-2-carbaldehyde], the “Modified Hb (%)” value [1] was 15.7 ± 4.3%, the “Hb modification relative to 5-HMF” value [1] was “weaker adduct formation” and the “% P50 shift” value ([2]; 1 mM) was 16%. The “% P50 shift” value ([2]; 2 mM) was 24%, the “AP50 (%)” value [2] was 24.0 ± 5.6% and the “% P50 shift” value ([2]; 5 mM) was 46%. The “P50 shift relative to 5-HMF” value [2] was “weaker”, the inhibition at 2000 µM [3, 8] was 7.4 ± 6.9% and the “sickling inhibition (antisickling effect)” value ([3]; at all three concentrations (1, 2 and 5 mM)) was “less than 5%”. The “antisickling effect” value ([3]; over 1, 2 and 5 mM) was “very little antisickling activity; also recorded: barely showed any antisickling activity; also recorded: poor antisickling effects”.

For `COP(=O)(OC)OCc1ccc(C=O)o1` [VZHE014, (5-Formylfuran-2-yl)methyl Dimethyl Phosphate], the “Modified Hb (%)” value [1] was 19.7 ± 6.3%, the “AP50 (%)” value [2] was 35.7 ± 8.1% and the “Inhibition of Sickling (%)” value [3, 11] was 8.4 ± 5.9%. For the same compound, the RBC sickling inhibition ([3]; 5 mM) was 43% and ~40% and the “antisickling effect” value ([3]; over 1, 2 and 5 mM) was “poor antisickling effects”.

In the case of `CCCOCc1ccc(C=O)o1` [VZHE015, 5-(Propoxymethyl)-2-furan Carboxadehyde], the “Modified Hb (%)” value [1] is reported as 39.7 ± 8.2%, the “AP50 (%)” value [2] is reported as 44.0 ± 9.7% and the “antisickling effect” value ([3]; 2 mM) is reported as “superior”. It also gave an inhibition at 2000 µM [3, 8] of 62.9 ± 6.2% and an inhibition at 2000 µM [3, 9] of 35 to 95%.

In the case of `CC(C)OCc1ccc(C=O)o1` [VZHE016, 5-(isopropoxymethyl)-2-furan Carboxadehyde], the “Modified Hb (%)” value [1] is reported as 36.4 ± 9.7%, the “AP50 (%)” value [2] is reported as 38.4 ± 10.4% and the RBC sickling inhibition ([3]; 2 mM) is reported as roughly 16%. For the same compound, the “Inhibition of Sickling (%)” value [3, 11] was 22.5 ± 8.8%.
